Measured values from patent US11214594B2, “Antimicrobial peptide having synergistic antibacterial effect with antibiotics on multidrug resistant bacteria, and use thereof” (priority 2016, dated 2022).
≈ marks a conversion by molar mass, not a printed value. Where two headings read alike, the source gives them in different places. Where a SMILES comes first, the peptide text is derived from it.

What was measured:
S. typhimurium = test: microbe, parasite or virus in culture; type: cell-based, Salmonella typhimurium; conditions: Salmonella enterica, read-out: Minimal inhibitory concentration MIC
Protocol: (§1) For the antibacterial activity, a minimal inhibitory concentration (MIC) of a peptide in which fungus bodies were not split in an MH medium with sufficient nutrients was measured.
(§2) Specifically, the strains described in the following [Table 2] were purchased and diluted with an MH medium such that the number of bacteria was 2×10^6 colony-forming units (CFUs), 100 μl of each of the diluted strains was aliquoted into a 96-well microtiter plate, and then 100 μl of a peptide solution diluted with the MH medium (solution diluted stepwise at 2: 1) was added to each well.

B. subtilis = test: microbe, parasite or virus in culture; type: cell-based, Bacillus subtilis; conditions: Bacillus subtilis, read-out: Minimal inhibitory concentration MIC
Protocol: as §1, §2

A. baumannii [1] = test: MIC of antibiotic during combined treatment with antimicrobial peptide; type: cell-based, Acinetobacter baumannii; conditions: A. baumannii
Protocol: (§3) Thereafter, the MIC value of each mixed solution was determined by diluting the antibiotic solution with the MH medium, adding 50 μl of the diluted solution to each well, and performing an experiment even under a reversed condition.

E. coli [2] = test: as above; type: cell-based, Escherichia coli; conditions: E. coli
Protocol: as §3

S. epidermidis = test: microbe, parasite or virus in culture; type: cell-based, Staphylococcus epidermidis; conditions: Staphylococcus epidermidis, read-out: Minimal inhibitory concentration MIC
Protocol: as §1, §2

MDRAB 12035 = test: microbe, parasite or virus in culture; type: cell-based, Acinetobacter baumannii; conditions: for Antibiotic MIC, compound alone: MDRAB 12035, no peptide
Protocol: as §1, §2

A. baumannii [3] = test: microbe, parasite or virus in culture; type: cell-based, Acinetobacter baumannii; conditions: for Antibiotic MIC, compound alone: no peptide; for MIC: Acinetobacter baumannii, read-out: Minimal inhibitory concentration MIC
Protocol: as §1, §2

E. coli [4] = test: microbe, parasite or virus in culture; type: cell-based, Escherichia coli
Protocol: as §1, §2

MDREC 1229 = test: microbe, parasite or virus in culture; type: cell-based, Escherichia coli; conditions: for MIC: Escherichia coli, read-out: Minimal inhibitory concentration MIC; for Antibiotic MIC, compound alone: no peptide
Protocol: as §1, §2

P. aeruginosa = test: microbe, parasite or virus in culture; type: cell-based, Pseudomonas aeruginosa; conditions: Pseudomonas aeruginosa, read-out: Minimal inhibitory concentration MIC
Protocol: as §1, §2

S. aureus = test: microbe, parasite or virus in culture; type: cell-based, Staphylococcus aureus; conditions: Staphylococcus aureus, read-out: Minimal inhibitory concentration MIC
Protocol: as §1, §2

A. baumannii [5] = test: MIC of antimicrobial peptide during combined treatment with antibiotic; type: cell-based, Acinetobacter baumannii
Protocol: Specifically, the strains described in [Table 2] were prepared and diluted with an MH medium such that the number of bacteria was 2×10^6 colony-forming units (CFUs) per 1 ml, 100 μl of the diluted strains was each aliquoted into a 96-well microtiter plate, and then 50 μl of a peptide solution diluted with the MH medium from the MIC value (solution diluted stepwise at 2: 1) was added to each well. Thereafter, the MIC value of each mixed solution was determined by diluting the antibiotic solution with the MH medium, adding 50 μl of the diluted solution to each well, and performing an experiment even under a reversed condition.

[6] = with Papiliocin 1 μg/ml (Conc./MIC 1/8)
[7] = with Papiliocin 2 μg/ml (Conc./MIC 1/4)
[8] = with Papiliocin 4 μg/ml (Conc./MIC 1/2)
[9] = with Papiliocin 8 μg/ml (Conc./MIC 1)
[10] = with PapMA-1 at 16 μg/ml (1/4 of peptide MIC)
[11] = with PapMA-2 at 16 μg/ml (1/4 of peptide MIC)
[12] = E. coli, compound alone (no peptide)

## CC[C@H]1OC(=O)[C@H](C)[C@@H](O[C@H]2C[C@@](C)(OC)[C@@H](O)[C@H](C)O2)[C@H](C)[C@@H](O[C@@H]2O[C@H](C)C[C@H](N(C)C)[C@H]2O)[C@](C)(O)C[C@@H](C)C(=O)[C@H](C)[C@@H](O)[C@]1(C)O [Erythromycin, erythromycin, reference compound]
S. typhimurium; S. typhimurium, agent alone
  MIC: 64 µg/mL (≈ 87.2 µM)
B. subtilis; B. subtilis, agent alone
  MIC: 0.25 µg/mL (≈ 0.341 µM)
A. baumannii [1]; with PapMA-1 at 8 μg/ml
  MIC of antibiotic administered in combination with peptide: 0.5 µg/mL
  MIC of antibiotic in combination as fraction of the MIC of the antibiotic alone: 1/64
A. baumannii [1]; [6]
  MIC Concentration of antibiotic: 32 µg/mL
A. baumannii [1]; [7]
  MIC Concentration of antibiotic: 16 µg/mL
A. baumannii [1]; [8]
  MIC Concentration of antibiotic: 16 µg/mL
A. baumannii [1]; [9]
  MIC Concentration of antibiotic: 0 µg/mL
E. coli [2]; with PapMA-1 at 16 μg/ml
  MIC of antibiotic in mixture as fraction of the MIC of the antibiotic alone: 1/64
E. coli [2]; [10]
  MIC value of antibiotic mixed with peptide: 2 µg/mL
E. coli [2]; [11]
  MIC value of antibiotic mixed with peptide: 0.5 µg/mL
E. coli [2]; with PapMA-7 at 16 μg/ml
  MIC of antibiotic in mixture as fraction of the MIC of the antibiotic alone: 1/512
E. coli [2]; [6]
  MIC Concentration of antibiotic: 64 µg/mL
E. coli [2]; [7]
  MIC Concentration of antibiotic: 64 µg/mL
E. coli [2]; [8]
  MIC Concentration of antibiotic: 64 µg/mL
E. coli [2]; [9]
  MIC Concentration of antibiotic: 0 µg/mL
S. epidermidis; S. epidermidis, agent alone
  MIC: 1 µg/mL (≈ 1.36 µM)
MDRAB 12035
  Antibiotic MIC, compound alone: 32 µg/mL
A. baumannii [3]; A. baumannii
  Antibiotic MIC, compound alone: 32 µg/mL
A. baumannii [3]; A. baumannii, agent alone
  MIC: 32 µg/mL (≈ 43.6 µM)

## CC(=O)NC[C@H]1CN(c2ccc(N3CCOCC3)c(F)c2)C(=O)O1 [Linezolid, linezolid, reference compound]
S. typhimurium; S. typhimurium, agent alone
  MIC: 256 µg/mL (≈ 759 µM)
E. coli [4]; [12]
  Antibiotic MIC, Linezolid: 256 µg/mL
MDREC 1229; MDREC 1229, agent alone
  MIC: 512 µg/mL (≈ 1520 µM)
MDREC 1229; MDREC 1229
  Antibiotic MIC, compound alone: 512 µg/mL
B. subtilis; B. subtilis, agent alone
  MIC: 1 µg/mL (≈ 2.96 µM)
A. baumannii [1]; with PapMA-1 at 8 μg/ml
  MIC of antibiotic administered in combination with peptide: 8 µg/mL
  MIC of antibiotic in combination as fraction of the MIC of the antibiotic alone: 1/32
A. baumannii [1]; with PapMA-7 at 8 μg/ml
  MIC of antibiotic administered in combination with peptide: 1 µg/mL
  MIC of antibiotic in combination as fraction of the MIC of the antibiotic alone: 1/256
A. baumannii [1]; [6]
  MIC Concentration of antibiotic: 128 µg/mL
A. baumannii [1]; [7]
  MIC Concentration of antibiotic: 64 µg/mL
A. baumannii [1]; [8]
  MIC Concentration of antibiotic: 64 µg/mL
A. baumannii [1]; [9]
  MIC Concentration of antibiotic: 0 µg/mL
P. aeruginosa; P. aeruginosa, agent alone
  MIC: > 1020 µg/mL
E. coli [2]; with PapMA-1 at 16 μg/ml
  MIC of antibiotic in mixture as fraction of the MIC of the antibiotic alone: 1/16
E. coli [2]; [10]
  MIC value of antibiotic mixed with peptide: 16 µg/mL
E. coli [2]; with PapMA-2 at 16 μg/ml
  MIC of antibiotic in mixture as fraction of the MIC of the antibiotic alone: 1/32
E. coli [2]; [11]
  MIC value of antibiotic mixed with peptide: 8 µg/mL
E. coli [2]; with PapMA-7 at 16 μg/ml
  MIC of antibiotic in mixture as fraction of the MIC of the antibiotic alone: 1/256
E. coli [2]; with PapMA-7 at 16 μg/ml (1/2 of peptide MIC)
  MIC value of antibiotic mixed with peptide: 1 µg/mL
E. coli [2]; [6]
  MIC Concentration of antibiotic: 128 µg/mL
E. coli [2]; [7]
  MIC Concentration of antibiotic: 128 µg/mL
E. coli [2]; [8]
  MIC Concentration of antibiotic: 128 µg/mL
E. coli [2]; [9]
  MIC Concentration of antibiotic: 0 µg/mL
S. epidermidis; S. epidermidis, agent alone
  MIC: 1 µg/mL (≈ 2.96 µM)
MDRAB 12035
  Antibiotic MIC, compound alone: 512 µg/mL
A. baumannii [3]; A. baumannii
  Antibiotic MIC, compound alone: 256 µg/mL

## CN[C@H](CC(C)C)C(=O)N[C@H]1C(=O)N[C@@H](CC(N)=O)C(=O)N[C@H]2C(=O)N[C@H]3C(=O)N[C@H](C(=O)N[C@H](C(=O)O)c4cc(O)cc(O)c4-c4cc3ccc4O)[C@H](O)c3ccc(c(Cl)c3)Oc3cc2cc(c3O[C@@H]2O[C@H](CO)[C@@H](O)[C@H](O)[C@H]2O[C@H]2C[C@](C)(N)[C@H](O)[C@H](C)O2)Oc2ccc(cc2Cl)[C@H]1O [Vancomycin, vancomycin, reference compound]
S. typhimurium; TYPHIMURIUM
  MIC: 512 µg/mL (≈ 353 µM)
E. coli [4]; [12]
  Antibiotic MIC, Vancomycin: 1024 µg/mL
E. coli [4]; Escherichia coli, 16 h, read-out: Minimal inhibitory concentration MIC
  MIC: 1020 µg/mL (≈ 707 µM)
MDREC 1229
  MIC: > 1020 µg/mL
MDREC 1229; MDREC 1229
  Antibiotic MIC, compound alone: >1024 µg/mL
B. subtilis
  MIC: 1 µg/mL (≈ 0.69 µM)
S. aureus
  MIC: 1 µg/mL (≈ 0.69 µM)
A. baumannii [1]; with PapMA-7 at 8 μg/ml
  MIC of antibiotic administered in combination with peptide: 2 µg/mL
  MIC of antibiotic in combination as fraction of the MIC of the antibiotic alone: 1/512
A. baumannii [1]; [6]
  MIC Concentration of antibiotic: 512 µg/mL
A. baumannii [1]; [7]
  MIC Concentration of antibiotic: 256 µg/mL
A. baumannii [1]; [8]
  MIC Concentration of antibiotic: 256 µg/mL
A. baumannii [1]; [9]
  MIC Concentration of antibiotic: 0 µg/mL
P. aeruginosa
  MIC: > 1020 µg/mL
E. coli [2]; [6]
  MIC Concentration of antibiotic: 512 µg/mL
E. coli [2]; [7]
  MIC Concentration of antibiotic: 256 µg/mL
E. coli [2]; [8]
  MIC Concentration of antibiotic: 256 µg/mL
E. coli [2]; [9]
  MIC Concentration of antibiotic: 0 µg/mL
S. epidermidis
  MIC: 1 µg/mL (≈ 0.69 µM)
MDRAB 12035; Acinetobacter baumannii, read-out: Minimal inhibitory concentration MIC
  MIC: > 1020 µg/mL
MDRAB 12035
  Antibiotic MIC, compound alone: >1024 µg/mL
A. baumannii [3]; A. baumannii
  Antibiotic MIC, compound alone: 1024 µg/mL
A. baumannii [3]
  MIC: 1020 µg/mL (≈ 707 µM)

## CC[C@H](C)[C@H](NC(=O)[C@H](CCCCN)NC(=O)[C@H](Cc1c[nH]c2ccccc12)NC(=O)[C@@H](N)CCCNC(=N)N)C(=O)N[C@@H](Cc1ccccc1)C(=O)N[C@@H](CCCCN)C(=O)N[C@@H](CCCCN)C(=O)N[C@H](C(=O)N1CCC[C@H]1C(=O)N[C@@H](CCCCN)C(=O)N[C@@H](CC(C)C)C(=O)N[C@@H](CC(C)C)C(=O)N[C@@H](Cc1c[nH]cn1)C(=O)N[C@@H](CCC(=O)O)C(=O)N[C@@H](Cc1ccccc1)C(=O)N[C@@H](CCCCN)C(=O)N[C@@H](CCCCN)C(=O)N[C@@H](Cc1ccccc1)C(N)=O)[C@@H](C)CC [Pap-MA-12] (H-RWKIFKKIPKLLHEFKKF-NH2; N-terminus assumed)
A. baumannii [5]; erythromycin 4 μg/ml (Conc./MIC 1/8)
  Peptide MIC during treatment with antibiotic: 4 µg/mL
A. baumannii [5]; erythromycin 8 μg/ml (Conc./MIC 1/4)
  Peptide MIC during treatment with antibiotic: 2 µg/mL
A. baumannii [5]; erythromycin 16 μg/ml (Conc./MIC 1/2)
  Peptide MIC during treatment with antibiotic: 1 µg/mL
A. baumannii [5]; erythromycin 32 μg/ml (Conc./MIC 1)
  Peptide MIC during treatment with antibiotic: 0 µg/mL
A. baumannii [5]; linezolid 32 μg/ml (Conc./MIC 1/8)
  Peptide MIC during treatment with antibiotic: 2 µg/mL
A. baumannii [5]; linezolid 64 μg/ml (Conc./MIC 1/4)
  Peptide MIC during treatment with antibiotic: 2 µg/mL
A. baumannii [5]; linezolid […] (Conc./MIC 1)
  Peptide MIC during treatment with antibiotic: 0 µg/mL
A. baumannii [5]; linezolid […] (Conc./MIC 1/2)
  Peptide MIC during treatment with antibiotic: 1 µg/mL
A. baumannii [5]; vancomycin 512 μg/ml (Conc./MIC 1/2)
  Peptide MIC during treatment with antibiotic: 0.25 µg/mL
A. baumannii [5]; vancomycin 1024 μg/ml (Conc./MIC 1)
  Peptide MIC during treatment with antibiotic: 0 µg/mL
A. baumannii [5]; vancomycin […] (Conc./MIC 1/4)
  Peptide MIC during treatment with antibiotic: 0.25 µg/mL
A. baumannii [5]; vancomycin […] (Conc./MIC 1/8)
  Peptide MIC during treatment with antibiotic: 2 µg/mL
A. baumannii [3]
  Peptide MIC, peptide alone: 8 µg/mL
